# Measurements from article PMC12486805, “Preclinical evaluation of tridecaptin M: in vitro and in vivo efficacy against colistin-resistant Gram-negative bacterial pathogens and pharmacokinetics” (Antimicrobial Agents and Chemotherapy, 2025).
# Read-outs that look alike come from different tables or passages of the source. Where a SMILES comes first, the peptide text is derived from it. [ ]: non-standard residue; d: D form. The star is where a group is joined. d(aIle) = CC[C@H](C)[C@@H](N)C(=O)O; X1 = CC[C@H](C)CCCCC(=O)*; dDab = NCC[C@@H](N)C(=O)O; Dab = NCC[C@H](N)C(=O)O
# Key:
# [1] = test system: K. pneumoniae ATCC 700603; conditions: ATCC 700603, 48 h
# Protocol: LB, TSB, TSB + 1% Glucose, M63, and the M63 media were selected for biofilm experiments ([20], [30], [31]). With some modifications from previous methods, employing CV staining, K. pneumoniae cells were grown in M63 salt media at 37°C, 200 rpm shaking conditions overnight. […] Following incubation, the media and planktonic cells were gently removed, and the wells with adhered biofilm were washed three times with 0.9% saline. […] The biofilm inhibition was calculated as the percentage of biofilm remaining after treatment using the formula:
# Biofilms remaining (%)=OD595 (sample)/OD595 (control)×100%
# [2] = biological target: T1, hERG channel (Homo sapiens, UniProt Q12809); assay: hERG channel inhibition, patch clamp on HEK293 cells expressing hERG; type: cell-based
# T1 construct: expressed in transfected cells; host or cells: HEK293
# T1 sequence (Q12809 whole entry): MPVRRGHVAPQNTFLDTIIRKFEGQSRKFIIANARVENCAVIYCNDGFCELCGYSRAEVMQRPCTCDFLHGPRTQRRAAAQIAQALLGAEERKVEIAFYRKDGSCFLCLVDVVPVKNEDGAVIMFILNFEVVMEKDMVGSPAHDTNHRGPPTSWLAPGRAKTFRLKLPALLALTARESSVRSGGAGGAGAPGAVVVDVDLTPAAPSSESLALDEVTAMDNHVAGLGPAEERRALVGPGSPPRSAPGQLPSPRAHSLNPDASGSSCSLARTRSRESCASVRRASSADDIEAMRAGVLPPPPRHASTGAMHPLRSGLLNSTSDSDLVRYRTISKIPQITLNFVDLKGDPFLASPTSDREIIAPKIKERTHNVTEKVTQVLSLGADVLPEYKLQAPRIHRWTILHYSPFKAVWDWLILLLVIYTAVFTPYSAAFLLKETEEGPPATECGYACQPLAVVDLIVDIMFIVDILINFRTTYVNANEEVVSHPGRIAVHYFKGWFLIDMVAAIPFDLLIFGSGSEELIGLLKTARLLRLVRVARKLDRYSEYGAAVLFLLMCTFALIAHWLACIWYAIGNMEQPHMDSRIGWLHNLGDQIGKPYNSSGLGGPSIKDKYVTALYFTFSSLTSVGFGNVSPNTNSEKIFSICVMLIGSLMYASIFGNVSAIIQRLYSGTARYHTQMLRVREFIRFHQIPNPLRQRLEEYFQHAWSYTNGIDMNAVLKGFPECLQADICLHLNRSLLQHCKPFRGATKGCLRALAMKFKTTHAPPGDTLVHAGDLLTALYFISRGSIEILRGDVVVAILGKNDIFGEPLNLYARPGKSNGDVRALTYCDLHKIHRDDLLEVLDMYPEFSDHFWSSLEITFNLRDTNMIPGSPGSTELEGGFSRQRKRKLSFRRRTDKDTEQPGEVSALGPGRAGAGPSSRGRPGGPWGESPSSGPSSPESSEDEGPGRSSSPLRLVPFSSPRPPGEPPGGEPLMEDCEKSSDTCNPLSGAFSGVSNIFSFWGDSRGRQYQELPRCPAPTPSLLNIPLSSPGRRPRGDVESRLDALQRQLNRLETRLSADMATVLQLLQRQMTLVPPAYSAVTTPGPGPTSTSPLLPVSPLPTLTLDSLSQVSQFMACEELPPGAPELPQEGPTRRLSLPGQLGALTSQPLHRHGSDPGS
# Protocol: The experiment starts upon reaching a resistance of 2-3.5 MOhm. A 5 µL cell suspension is added after generating a suction pulse to capture a cell, increasing resistance to 5 MOhm, and triggering the sealing step. […] A hERG protocol measures ion current every 10 s with voltage steps: holding at −80 mV, depolarizing to +40 mV, and repolarizing to −40 mV. Stable current is achieved in ~2 min. […]
# [3] = test system: Salmonella typhimurium; type: cell-based
# Protocol: The Salmonella typhimurium histidine-dependent engineered tester strains are allowed to incubate with S9 enzyme mix or PBS (without S9 set) for 30 min at 35°C. After incubation, the mixture was added to 2 mL of top agar tubes maintained at 46 ± 2°C and plated onto minimal glucose agar plates. After solidification, the plates are incubated at 37°C. Salmonella typhimurium auxotrophic mutants, if grown on minimal media, are counted as the number of revertant colonies due to the mutagenic potential of the compound tested. Positive controls, growth controls, and sterility checks are included during the experimentation for the sensitivity of the experiment ([38]).
# [4] = Protocol: Acute toxicity was performed on Balb/c female mice, 8 weeks old. This study was adopted and modified from a study described previously ([39]). Initial screening was done with 100 mg/kg, 200 mg/kg, 400 mg/kg, and 600 mg/kg doses of tridecaptin M and vehicle control (100% DMSO). […] Eight mice were taken, four in each group ([…]), one group was administered vehicle control (DMSO), and the other group was administered 600 mg/kg of tridecaptin M. After 3 days, blood was collected to obtain serum for biochemical tests, and mice were euthanized to remove organs (preserved in 10% formalin) for histopathological analysis.
# [5] = mouse liver microsomes
# Remark: listed apart in the source
# [6] = in vivo; conditions: male, Sprague-Dawley, rat, plasma, 5 mg/kg; for Cmax / half-life: 5 mg/kg b.w.
# Protocol: The samples were then centrifuged at 4,000 rpm for 10 min at 4°C to separate plasma, which was stored at −80°C until analysis.
# [7] = in vitro; conditions: mouse, plasma, % Binding to Plasma Protein
# Protocol: (§1) Plasma protein binding was assessed using the rapid equilibrium dialysis (RED) method, utilizing RED insert devices with a dialysis membrane featuring an 8,000 Dalton molecular weight cutoff for proteins. The test/control items in human, rat, and mouse plasma were prepared at a test concentration of 10 µM using 10 mM DMSO stocks, and the samples were added to the plasma chamber of the RED insert. The device was sealed with tape and incubated in a thermomixer at 37°C with shaking at 300 rpm for 4 h. Following incubation, a 50 µL aliquot of plasma and buffer was collected from each insert and diluted with an equal volume of the opposite matrix to mitigate matrix effects. The samples were quantified using LC-MS/MS analysis and were tested in duplicates.
# [8] = in vitro; conditions: rat, plasma, % Binding to Plasma Protein
# Protocol: as §1
# [9] = 12 mg/kg every 2 h up to 12 h, total 72 mg/kg; cited from earlier work
# [10] = concentrations well above its MIC; cited from earlier work
# [11] = 14-day repeat dose toxicity in mice; conditions: 15 mg/kg/day in two s.c. doses, 14 days
# Protocol: Organs were fixed in 10% formalin for histopathology, and the serum was centrifuged from whole blood. The blood was left undisturbed for 20 min and centrifuged at 1,000 × g for 10 min to isolate serum for biochemical tests of the kidney and liver toxicity evaluation ([22]).
# [12] = subcutaneous, 5 mg/kg b.w., plasma
structure (smiles),measurement,setting,value
"CC[C@H](C)CCCCC(=O)NCC(=O)N[C@H](CCN)C(=O)NCC(=O)N[C@H](CO)C(=O)N[C@H](Cc1c[nH]c2ccccc12)C(=O)N[C@@H](CO)C(=O)N[C@@H](CCN)C(=O)N[C@H](CCN)C(=O)N[C@H](C(=O)N[C@@H](CCC(=O)O)C(=O)N[C@H](C(=O)N[C@@H](C(=O)N[C@@H](CO)C(=O)O)[C@@H](C)CC)[C@@H](C)CC)[C@@H](C)CC [Tridecaptin M, tridecaptin M] (X1-G[dDab]G[dS][dW]S[Dab][dDab]IEI[d(aIle)]S-OH)",% Biofilm remaining (biofilm inhibition),[1]; 1,29.6%
same,% Biofilm remaining (biofilm inhibition),[1]; 2,7.0%
same,% Biofilm remaining (biofilm inhibition),[1]; 5,0.5%
same,Mean current,[2]; 0.1 µM,4.41E-10 A
same,Mean current,[2]; 0.3 µM,4.66E-10 A
same,Mean current,[2]; 1 µM,4.64E-10 A
same,Mean current,[2]; 3 µM,4.58E-10 A
same,Mean current,[2]; 10 µM,4.34E-10 A
same,Mean current,[2]; 30 µM,4.68E-10 A
same,inhibition of the hERG channel,[2]; concentrations up to 30 µM (44.6 µg/mL),no significant inhibition
same,inhibition at 0.1 µM,"[2]; human, HEK293 cells expressing hERG, pH 7.4, 0.1 µM",-0.37%
same,inhibition at 0.3 µM,"[2]; human, HEK293 cells expressing hERG, pH 7.4, 0.3 µM",-5.86%
same,inhibition at 1 µM,"[2]; human, HEK293 cells expressing hERG, pH 7.4, 1 µM",-5.54%
same,inhibition at 3 µM,"[2]; human, HEK293 cells expressing hERG, pH 7.4, 3 µM",-4.07%
same,inhibition at 10 µM,"[2]; human, HEK293 cells expressing hERG, pH 7.4, 10 µM",1.37%
same,inhibition at 30 µM,"[2]; human, HEK293 cells expressing hERG, pH 7.4, 30 µM",-6.44%
same,AMES test Remark,[3]; 0.03 μg/plate,Mutagenic response not observed
same,AMES test TA98,[3]; 0.03 μg/plate,"NC, NR"
same,AMES test TA100,[3]; 0.03 μg/plate,"NC, NR"
same,AMES test TA102,[3]; 0.03 μg/plate,"NC, NR"
same,AMES test TA1535,[3]; 0.03 μg/plate,"NC, NR"
same,AMES test TA1537,[3]; 0.03 μg/plate,"NC, NR"
same,AMES test Remark,[3]; 0.10 μg/plate,Mutagenic response not observed
same,AMES test TA98,[3]; 0.10 μg/plate,"NC, NR"
same,AMES test TA100,[3]; 0.10 μg/plate,"NC, NR"
same,AMES test TA102,[3]; 0.10 μg/plate,"NC, NR"
same,AMES test TA1535,[3]; 0.10 μg/plate,"NC, NR"
same,AMES test TA1537,[3]; 0.10 μg/plate,"NC, NR"
same,AMES test Remark,[3]; 0.32 μg/plate,Mutagenic response not observed
same,AMES test TA98,[3]; 0.32 μg/plate,"NC, NR"
same,AMES test TA100,[3]; 0.32 μg/plate,"NC, NR"
same,AMES test TA102,[3]; 0.32 μg/plate,"NC, NR"
same,AMES test TA1535,[3]; 0.32 μg/plate,"NC, NR"
same,AMES test TA1537,[3]; 0.32 μg/plate,"NC, NR"
same,AMES test Remark,[3]; 1.00 μg/plate,Mutagenic response not observed
same,AMES test TA98,[3]; 1.00 μg/plate,"NC, NR"
same,AMES test TA100,[3]; 1.00 μg/plate,"NC, NR"
same,AMES test TA102,[3]; 1.00 μg/plate,"NC, NR"
same,AMES test TA1535,[3]; 1.00 μg/plate,"NC, NR"
same,AMES test TA1537,[3]; 1.00 μg/plate,"NC, NR"
same,AMES test Remark,[3]; 3.16 μg/plate,Mutagenic response not observed
same,AMES test TA98,[3]; 3.16 μg/plate,"NC, NR"
same,AMES test TA100,[3]; 3.16 μg/plate,"NC, NR"
same,AMES test TA102,[3]; 3.16 μg/plate,"NC, NR"
same,AMES test TA1535,[3]; 3.16 μg/plate,"NC, NR"
same,AMES test TA1537,[3]; 3.16 μg/plate,"NC, NR"
same,AMES test Remark,[3]; 10 μg/plate,Cytotoxicity observed
same,AMES test TA98,[3]; 10 μg/plate,"PI, RC"
same,AMES test TA100,[3]; 10 μg/plate,"PI, RC"
same,AMES test TA102,[3]; 10 μg/plate,"PI, RC"
same,AMES test TA1535,[3]; 10 μg/plate,"PI, RC"
same,AMES test TA1537,[3]; 10 μg/plate,"PI, RC"
same,effect on Salmonella typhimurium tester strains,[3]; 10 µg/plate and above,cytotoxic
same,mutagenic potential,"[3]; 3.16, 1.00, 0.32 and 0.10 µg/plate, presence and absence of S9",did not show any mutagenic potential
same,SGPT (serum),"[4]; 600 mg/kg s.c., female mouse TF-2, day 3",112 Units/L
same,mortality,[4]; single s.c. dose 100-600 mg/kg,No mortality was observed
same,"histopathology of heart, kidney, liver, brain, spleen","[4]; single s.c. dose 100-600 mg/kg, vs vehicle control",No signs of toxicity or pathological changes
same,dose up to which safety is confirmed,[4]; subcutaneous administration,up to 600 mg/kg
same,CL,[5],<11.55 µL/min/mg
same,Cmax relative to the MIC value,"intravenous, 5mg/kg b.w.",about 10 times
same,time plasma concentration maintained above MIC (4µg/mL),"intravenous, 5mg/kg b.w.",about 4 h
same,Cmax,"intravenous, 5 mg/kg b.w., plasma, 5 mg/kg",43200 ± 6020 ng/mL
same,CL,[12],4.95 ± 0.24 mL/min/kg
same,Vss,[12],2.63 ± 0.45 L/kg
same,T1/2,"subcutaneous, 5 mg/kg b.w., plasma, 5 mg/kg",8.56 ± 1.60 h
same,AUC(0-t),[6]; iv,94600 ± 45000 ng·h/mL
same,MRT last,[6]; iv,2.69 ± 1.02 h
same,Vd,[6]; iv,0.16 ± 0.04 L/kg
same,clearance,[6]; iv,1 ± 0.33 mL/min/kg
same,Cmax,[6]; iv,38500 ng/mL
same,half-life,"[6]; iv, T1/2, intravenous",3.65 ± 0.56 h
same,AUC(0-t),[6]; sc,14000 ± 2090 ng·h/mL
same,MRT last,[6]; sc,8.81 ± 2.1 h
same,Cmax,"[6]; sc, subcutaneous",9150 ± 1700 ng/mL
same,half-life,"[6]; sc, T1/2, subcutaneous",8.81 h
same,"fraction unbound at 4 h, 10 µM",[7],0.5
same,"fraction unbound at 4 h, 10 µM",[8],0.465
same,tolerance in acute toxicity study,[9],good tolerance
same,hemolysis,[10],non-hemolytic
same,ALP (serum),[11],77.33 ± 27.47 U/L
same,Albumin (serum),[11],2.60 ± 0.47 g/dL
same,BBilirubin (serum),[11],0.31 ± 0.06 mg/dL
same,BUN (serum),[11],35.33 ± 11.43 mg%
same,Calcium (serum),[11],7.76 ± 2.19 mg%
same,Creatinine (serum),[11],0.41 ± 0.026 mg%
same,Globulin (serum),[11],3.53 ± 0.83 g/dL
same,Phosphorous (serum),[11],7.36 ± 1.27 mg%
same,Proteins (serum),[11],6.13 ± 1.06 g/dL
same,SGOT (serum),[11],657.33 ± 141.06 Units/L
same,SGPT (serum),[11],103.67 ± 40.70 Units/L
same,Uric acid (serum),[11],4.6 ± 1.89 mg%
same,histopathological analysis of liver and kidneys,[11],no signs of toxicity
